In ChEMBL document CHEMBL1122170, “Angiotensin converting enzyme inhibitors: modifications of a tripeptide analogue” (J Med Chem, 1982) one finds IC50 data, which are given here for 5 compounds.

This assay addresses Angiotensin-converting enzyme (Cavia porcellus). The experiment in a line: Concentration required for 50% inhibition of Angiotensin I converting enzyme.
A word on the IC50: it is the concentration that inhibits the measured activity by half. In turn, `O=C(NC(Cc1ccccc1)C(=O)CSCC(=O)N1CCC[C@@H]1C(=O)O)c1ccccc1` (stereo not given in full) came in with an IC50 of 12 nM. This lies in the double-digit nanomolar range. Take `O=C(NC(Cc1ccccc1)C(=O)CNCC(=O)N1CCC[C@@H]1C(=O)O)c1ccccc1` (stereo not given in full): the 50% inhibitory concentration (IC50) worked out at 960 nM. Compound `Cc1ccc(S(=O)(=O)N(CC(=O)C(Cc2ccccc2)NC(=O)c2ccccc2)CC(=O)N2CCC[C@@H]2C(=O)O)cc1` (stereo not given in full) showed an IC50 of 22000 nM. For `O=C(NC(Cc1ccccc1)C(=O)COCC(=O)N1CCC[C@@H]1C(=O)O)c1ccccc1` (stereo not given in full) the value was 4.4 nM; for `O=C(NC(Cc1ccccc1)C(=O)CCCC(=O)N1CCC[C@@H]1C(=O)O)c1ccccc1` (stereo not given in full), 42 nM.
